Assay results as given in PMC9611540, “PEGylation of the antimicrobial peptide LyeTx I-b maintains structure-related biological properties and improves selectivity” (Frontiers in Molecular Biosciences, 2022).

Columns and labels:
[1] = test system: S. aureus ISOL_1 (multidrug-resistant isolate); type: cell-based, Staphylococcus aureus; conditions: for MIC: S. aureus ISOL_1, microdilution plates, Mueller Hinton, 10^4 bacterial cells per well, peptides 32 to 0.25 μM, triplicate
Text: (§1) Escherichia coli (ATCC 25922), Staphylococcus aureus (ATCC 33591), and three multidrug-resistant isolates (two E. coli and one S. aureus) were provided by Laboratory of Oral Microbiology and Anaerobes, Department of Microbiology, Institute of Biological Sciences, Federal University of Minas Gerais. Renal epithelial cells of the African green monkey (Cercopithecus aethiops) (VERO, ATCC CCL-81) were provided by the Federal University of Sao Joao del-Rei (UFSJ).
(§2) In order to determine MIC values of the PEGylated and the non-PEGylated peptides, bacterial isolates were cultured in TSA. After incubation for 24 h, at 37°C, under aerobic conditions, colonies were collected using an inoculation loop and transferred to saline solution (0.9% m/v NaCl). The inoculums were checked in a spectrophotometer at 600 nm; colonies were added until an absorbance corresponding to 1.5 × 10^8 cells · mL^−1 was obtained. Then, a 150-fold dilution was performed to achieve a concentration of 1 × 10^6 cells · mL^−1. MIC assays were performed in microdilution plates employing inoculums of 10^4 bacterial cells per well and concentrations of peptides ranging from 32 to 0.25 μM. All analyses were performed in triplicate. Positive (MH + bacterial inoculum) and negative (MH and MH + saline solution) controls were included in each batch of tests.
(§3) The specific values of molar peptide concentration used in this work were estimated according to the method described by [Schmid (2001)].

[2] = test system: E.coli ISOL_11 (multidrug-resistant isolate); type: cell-based, Escherichia coli; conditions: for MIC: E. coli ISOL_11, microdilution plates, Mueller Hinton, 10^4 bacterial cells per well, peptides 32 to 0.25 μM, triplicate
Text: as §1, §2, §3

[3] = test system: E.coli ISOL_10 (multidrug-resistant isolate); type: cell-based, Escherichia coli; conditions: microdilution plates, Mueller Hinton, 10^4 bacterial cells per well, peptides 32 to 0.25 μM, triplicate
Text: as §1, §2, §3

[4] = test system: Escherichia coli (ATCC 25922); type: cell-based; conditions: for MIC: E. coli ATCC 25922, microdilution plates, Mueller Hinton, 10^4 bacterial cells per well, peptides 32 to 0.25 μM, triplicate
Text: as §1, §2, §3

[5] = test system: Staphylococcus aureus (ATCC 33591); type: cell-based; conditions: for MIC: S. aureus ATCC 33591, microdilution plates, Mueller Hinton, 10^4 bacterial cells per well, peptides 32 to 0.25 μM, triplicate
Text: as §1, §2, §3

trypsin = experiment: Proteolytic degradation assay, RP-HPLC; type: in vitro ADME; conditions: 50 μM peptide, enzyme:substrate 1:50 (w/w), 10 mM phosphate buffer pH 8.0, 37°C, up to 24 h, RP-HPLC C18, UV 215 nm
Method: (§4) The enzymes used in the experiments were trypsin and proteinase K. Enzyme solutions were prepared a few minutes before the experiments and contained 1.0 µM enzyme in 10 mM phosphate buffer at pH 8.0 for activation. Comparative proteolysis experiments between LyeTx I-b and LyeTx I-bPEG were performed by digesting the peptide solution (50 μM) with the enzyme solutions incubated at 37°C at an enzyme:substrate ratio of 1:50 (w/w) for trypsin and 1:50 (w/w) for proteinase K for 24 h. […] After inactivation, aliquots of 50 µL were injected into a Varian™ chromatograph (Varian, Inc. Corporate Headquarters, Palo Alto, CA, United States), model Pro Star 315, with ultraviolet detector, model Pro Star 335, using a Vydac™ 218 TP C18 (250 × 4.6 mm) reverse phase column. Chromatographic analyses were performed using a gradient of deionized water containing 0.1% TFA and acetonitrile containing 0.08% TFA. Samples were detected at 215 nm under a flow of 0.80 mL · min^−1 for 45 min.

proteinase K = proteinase K (Parengyodontium album, UniProt P06873); experiment: Proteolytic degradation assay, RP-HPLC; type: in vitro ADME; conditions: 50 μM peptide, enzyme:substrate 1:50 (w/w) or 1:25 (w/w), 10 mM phosphate buffer pH 8.0, 37°C, up to 24 h, RP-HPLC C18, UV 215 nm
Method: as §4

Sequence of proteinase K (P06873 106-384): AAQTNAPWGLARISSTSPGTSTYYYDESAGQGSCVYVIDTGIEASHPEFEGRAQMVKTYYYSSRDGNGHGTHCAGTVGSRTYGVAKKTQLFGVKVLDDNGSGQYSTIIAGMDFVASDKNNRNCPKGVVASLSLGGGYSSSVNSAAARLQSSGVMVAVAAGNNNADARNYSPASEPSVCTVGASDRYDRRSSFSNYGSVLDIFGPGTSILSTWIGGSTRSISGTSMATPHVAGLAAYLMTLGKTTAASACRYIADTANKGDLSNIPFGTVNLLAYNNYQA

Substance	MIC [1] [µM]	MIC [2] [µM]	MIC [3] [µM]	MIC [4] [µM]	MIC [5] [µM]	Selectivity index (SI) ([1]; S. aureus ISOL_1 versus VERO cells (CC50, MTT, 24 h))	Selectivity index (SI) ([2]; E. coli ISOL_11 versus VERO cells (CC50, MTT, 24 h))	Selectivity index (SI) ([4]; E. coli ATCC 25922 versus VERO cells (CC50, MTT, 24 h))	Selectivity index (SI) ([5]; S. aureus ATCC 33591 versus VERO cells (CC50, MTT, 24 h))	Proteolytic degradation by trypsin (trypsin)	Proteolytic degradation by proteinase K (proteinase K)
Ac-IWLTALKFLGKNLGKLAKQQCAKL-NH2 [LyeTx I-bcys]	2.0	1.0	1.0	1.0	2.0	–	–	–	–	–	–
Ac-IWLTALKFLGKNLGKLAKQQLAKL-NH2 [LyeTx I-b]	2.0	1.0	1.0	1.0	2.0	0.48	0.96	0.96	0.48	almost completely degraded after 6 h	almost completely degraded after 6 h
